In PubChem BioAssay (NCI):
“And” between values parts separate entries of the source, which are not always exact repeats. Equal entries are not always repeated.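 All cell lines were grown in 96-well plates and treated with compound for 48 hours. Abbreviation: GI50, concentration required for 50% inhibition of growth. TGI is the concentration that stops growth completely.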

Tests used:
Assay in all cases: growth of human tumour cells (NCI), 48 h
[1] = tested on: RPMI-8226 leukemia
[2] = tested on: A549 NSCLC
[3] = tested on: SK-OV-3 ovarian
[4] = tested on: SNB-75 CNS
[5] = tested on: HOP-92 NSCLC
[6] = tested on: UACC-62 melanoma
[7] = tested on: MDA-MB-231 breast
[8] = tested on: A498 renal
[9] = tested on: HT29 colon
[10] = tested on: BT-549 breast

| SMILES | TGI [1] | TGI [2] [µM] | TGI [3] | TGI [4] [µM] | TGI [5] [µM] | TGI [6] | TGI [7] | TGI [8] | TGI [9] | TGI [10] | GI50 [1] [µM] | GI50 [2] [µM] | GI50 [3] [µM] | GI50 [6] [nM] | GI50 [7] [nM] | GI50 [8] [µM] | GI50 [9] [nM] |
| --- | --- | --- | --- | --- | --- | --- | --- | --- | --- | --- | --- | --- | --- | --- | --- | --- | --- |
| CC(C)(C)C#CI1OC(=O)c2ccccc21 | 5.11 µM | 31.9 | 25.1 µM | 16 | 5.78 | 13.8 µM | 34 µM | 24 µM | 22.8 µM | 11.7 µM |  |  |  |  |  |  |  |
| CCOP(=O)(CC1OC(CO)C(O)C1O)OCC (configuration not stated) | > 100 µM | > 100 | > 100 µM | > 100 | > 100 | > 100 µM | > 100 µM | > 100 µM | > 61.8 µM | > 100 µM |  |  |  |  |  |  |  |
| CO[C@H](C)[C@](O)(C(=O)OCC1=CCN2CC[C@@H](O)[C@H]12)C(C)C | > 100 µM | > 100 | > 100 µM | > 100 | > 100 | > 100 µM | > 100 µM | > 100 µM | > 100 µM | > 100 µM |  |  |  |  |  |  |  |
| CCCCCc1cc(CCCC)sc1-c1ccco1 | > 100 µM | > 100 | > 100 µM | > 100 | > 100 | > 100 µM | > 100 µM | > 100 µM | > 100 µM | > 100 µM |  |  |  |  |  |  |  |
| C[N+]1(CCCCN2c3ccccc3Sc3cc(N=[N+]=[N-])ccc32)CCN(C(=O)CCNC(=O)Cc2ccc(C(=O)c3ccccc3)cc2)CC1 | 61.4 µM | > 72.6 | 62 µM | 43.3 | 40.5 | > 69.2 µM | 81 µM | 56.3 µM | 52.6 µM | > 71.4 µM |  |  |  |  |  |  |  |
| O=C(O)Cn1c[n+](NC(=O)Cc2ccccc2)cn1 | > 10 µM | > 10 | > 10 µM | > 10 | > 10 | > 10 µM | > 10 µM | > 10 µM | > 10 µM | > 10 µM |  |  |  |  |  |  |  |
| COC(=O)Cc1c2n(c3ccccc13)C(=O)N1c3ccccc3C(CC(=O)OC)C21 (configuration not stated) | > 100 µM | > 100 | > 100 µM | 28.5 | 27.5 | > 100 µM | 67.3 µM | > 100 µM | > 100 µM | 93.9 µM |  |  |  |  |  |  |  |
| O=C1c2c(Br)sc(Br)c2[C@H]2OC(=S)N[C@@H]12 | 40.3 µM | 37.5 | 29.9 µM | 31 | 27.3 | 24.1 µM | 25 µM | 32.5 µM | 4.05 µM | 23.8 µM |  |  |  |  |  |  |  |
| CC(Br)CN(CC(C)Br)c1ccc2c(c1)Cc1ccccc1-2 (configuration not stated) | 71.8 µM | 24.4 | 31.1 µM | 25.2 | 20.9 | 24.2 µM | 26.8 µM | 26 µM | 25.9 µM | 35.1 µM |  |  |  |  |  |  |  |
| O=C1c2cccnc2C(=O)c2c1nc1ccccc1c2-c1ccc2c3c(nc4ccccc42)C(=O)c2cccnc2-c13 | 7.14 µM | 6.86 | 18.5 µM | 8.28 | 30.5 | 5.1 µM | 9.49 µM | 6.05 µM | 7.57 µM | 12.7 µM |  |  |  |  |  |  |  |
| CC(C)(C)[Si](C)(C)OC1CCOC1(O)c1ccccn1 (configuration not stated) | > 100 µM | > 100 | > 100 µM | > 100 | > 100 | > 100 µM | > 100 µM | > 100 µM | > 100 µM | > 100 µM |  |  |  |  |  |  |  |
| Brc1ccc(/C(N=N/C(=N\Sc2ccccc2)c2ccc(Br)cc2)=N/Sc2ccccc2)cc1 | > 100 µM | > 100 | > 100 µM | > 100 | > 100 | > 100 µM | > 100 µM | > 100 µM | > 100 µM | > 100 µM |  |  |  |  |  |  |  |
| O=C1CCC(CCc2nc3ccccc3[nH]2)(c2ccccc2)C(=O)N1 (configuration not stated) | > 100 µM | > 100 | > 100 µM | > 100 | > 100 | > 100 µM | > 100 µM | > 100 µM | > 100 µM | > 100 µM |  |  |  |  |  |  |  |
| COC(=O)[C@@H]1[C@H]2CC[C@]3(C)[C@@H](OC(C)=O)CC[C@H]3[C@@H]2CC[C@H]1C1(C)SCCS1 | 43.4 µM | 74.5 | > 100 µM | > 100 | 47.9 | > 100 µM | 62.1 µM | > 100 µM | 30 µM | 46.2 µM |  |  |  |  |  |  |  |
| O=C(CCl)Nc1ccc(C(=O)N/N=C/c2ccc(Cl)cc2)cc1 | 6.54 µM and 32.5 µM | 15.2 | 8.02 µM and 24.7 µM | 30.5 | 4.53 | 3.2 µM and 8.78 µM | 3.68 µM and 0.417 µM | 4.85 µM and 26.7 µM | 3.18 µM and 4.61 µM | 3.53 µM and 4.11 µM | 9.09 | 3.96 | 12.3 | 1710 | 198 | 13 | 2250 |
| C[C@@H](CCO)OC1OC(COC(=O)C(C)(C)C)C(OC(=O)C(C)(C)C)C(OC(=O)C(C)(C)C)C1OC(=O)C(C)(C)C (some centres not stated) | 81.8 µM | > 100 | > 100 µM | > 100 | > 100 | > 100 µM | 25.9 µM | > 100 µM | 35.7 µM | > 100 µM |  |  |  |  |  |  |  |
| O=C1CCCC2=C1CC1=C(CCCC1=O)N2c1ccc(-c2ccccc2)cc1 | > 100 µM | > 100 | > 100 µM | > 67.5 | > 100 | > 100 µM | > 100 µM | > 100 µM | > 100 µM | > 100 µM |  |  |  |  |  |  |  |
